The subject of experiment [1] is S. coelicolor LAG2 (ddl suppressor mutant). As to the kind of experiment: MIC of vancomycin on MM agar plates with added D-Ala or L-Ala. Particulars: Streptomyces coelicolor. It counts as cell-based, Streptomyces coelicolor. The method, then: VanS is the sensory kinase of a two-component system formed with VanR, and it has been shown previously that certain mutations in vanS will constitutively upregulate the vancomycin resistance cluster, explaining the viability of strain LAG2 in the absence of vancomycin.
(§1) Escherichia coli strains JM109 (Sambrook et al., 1989) and ET12567 (Kieser et al., 2000) were used for routine cloning procedures and for extracting non-methylated DNA, respectively. Cells of E. coli were grown in Luria-Berani broth (LB) at 37° C. Streptomyces coelicolor A3(2) M145 was the parent of all mutants described in this work. All media and routine Streptomyces techniques were carried out as described (Kieser et al., 2000). SFM (soy flour mannitol) agar plates were used for propagating S. coelicolor strains and to prepare spore suspensions. For liquid-grown cultures, S. coelicolor mycelia were grown in normal minimal media with phosphate (NMMP) supplemented with 1% (w/v) mannitol as the sole carbon source. The MIC of vancomycin against S. coelicolor M145 and its mutant derivatives were determined by growth on minimal media (MM) agar plates supplemented with 1% mannitol as the sole carbon source, and 0, 2, 4, 8, 16, 32, 64, 128, 256 or 512 μg/ml vancomycin, in combination with 0, 1, 5, 10 or 50 mM of D-Ala or L-Ala. The vanX deletion mutants have been tested with 1, 5, 10, 50 and 100 μM D-Ala and L-Ala.

Experiment [2] deals with clinical isolates of vanA-positive Enterococcus faecium. As to the kind of experiment: MIC of vancomycin by serial dilution, isolates not named individually. The format is cell-based. The note with it: for MIC: Enterococcus faecium. As to the method:
Having established the important role of D-Ala in enhancing the efficacy of vancomycin against vancomycin-resistant S. coelicolor cells, next, its effect on the resistance of clinical isolates of Enterococcus faecium, which were vanA-positive strains, was assessed. MIC values were calculated by testing a serial dilution of vancomycin in the presence or absence of D-Ala in triplicate (Table 3).
The MIC was determined by measurement of the OD600 or by visual assessment, following the Clinical Laboratory and Standards Institute (CLSI) guidelines. […] This value compares to intermediate instead of total resistance. The strains were serially diluted in a 96-well plate and growth was assayed at OD600. The steps down refer to CSLI guidelines for clinical MIC measurements.
Five vanA-positive Enterococcus faecium strains were collected in 2011 and 2014 from patients in the Erasmus University Medical Centre, Rotterdam, The Netherlands. Presence of the vanA gene was confirmed by real-time PCR with the LIGHTCYCLER® 480 instrument (Roche Diagnostics, Almere, The Netherlands) with the primers vanA F1 and vanA R1, and the vanA probe. The resistance profile of these isolates was determined as MIC values using the VITEK II (BioMerieux) system AST-P586. To determine the MIC of vancomycin against E. faecium, cells were grown overnight on Trypticase Soy Agar (TSA) blood agar plates (Becton Dickinson, Breda, The Netherlands) and suspended in 0.9% NaCl until OD600 0.5 (±0.05). Of this suspension, 10 μl was dispensed into wells of sterile flat-bottom 96-well polystyrene tissue culture plates (Greiner Bio-One, Alphen aan Den Rijn, The Netherlands) containing serial dilutions of vancomycin in 190 μl of a 1:1 mixture of Fetal Bovine Serum (FBS) (Gibco, Bleiswijk, The Netherlands) and Iscove's Modified Dulbecco's Medium (IMDM) (without phenolred, Gibco, Bleiswijk, The Netherlands), and in the presence or absence of 50 mM D-alanine (Alfa Aesar, Ward Hill, Mass., USA). Plates were incubated for 18-24 hours at 37° C. and MIC values determined visually following the CLSI guidelines, or by spectrophotometer at 600 nm.

Experiment [3] concerns S. coelicolor M145 ΔvanX (LAG3). As to the kind of experiment: MIC of vancomycin on MM agar plates with added D-Ala. The format is cell-based, Streptomyces coelicolor. Particulars: Streptomyces coelicolor.
Text: VanX effectively eradicates the D-Ala-D-Ala dipeptide, thereby counteracting the accumulation of wild-type precursors and supporting vancomycin resistance (Lessard and Walsh, 1999; Tan et al., 2002). Therefore, a vanX null mutant was created using a similar strategy as for ddl, replacing the coding region of vanX by the apramycin resistance cassette aacC4. The mutant was created in both the parental strain S. coelicolor M145 and in its ddl suppressor mutant LAG2, generating LAG3 (M145 ΔvanX) and LAG4 (M145 Δddl ΔvanX vanS::IS466A), respectively.
LAG4 produced 20% wt precursors prior to the addition of D-Ala.
as §1

Where two headings read alike, the source gives them in different places.

For `CN[C@H](CC(C)C)C(=O)N[C@H]1C(=O)N[C@@H](CC(N)=O)C(=O)N[C@H]2C(=O)N[C@H]3C(=O)N[C@H](C(=O)N[C@H](C(=O)O)c4cc(O)cc(O)c4-c4cc3ccc4O)[C@H](O)c3ccc(c(Cl)c3)Oc3cc2cc(c3O[C@@H]2O[C@H](CO)[C@@H](O)[C@H](O)[C@H]2O[C@H]2C[C@](C)(N)[C@H](O)[C@H](C)O2)Oc2ccc(cc2Cl)[C@H]1O` [vancomycin], the MIC in experiment [1] (LAG2, 0 mM D-Ala) was 128 µg/mL; in experiment [1] (LAG2, 5 mM D-Ala) it was 64 µg/mL; in experiment [1] (LAG2, 10 mM D-Ala), 32 µg/mL; in experiment [1] (LAG2, 50 mM D-Ala) it was 4 µg/mL; in experiment [2] (worst cases, 50 mM D-Ala), 256 µg/mL; in experiment [2] (worst cases, without D-Ala) it was 4100 µg/mL. Also, the MIC came to 32 µg/mL in experiment [3] (read-out: MIC of vancomycin, M145 ΔvanX, 0 μM D-Ala); 16 µg/mL in experiment [3] (read-out: MIC of vancomycin, M145 ΔvanX, 10 μM D-Ala); 1 µg/mL in experiment [3] (read-out: MIC of vancomycin, M145 ΔvanX, 50 μM D-Ala); 1 µg/mL in experiment [3] (read-out: MIC of vancomycin, M145 ΔvanX, 50 μg/ml D-Ala); 1 µg/mL in experiment [3] (read-out: MIC of vancomycin, M145 ΔvanX, 100 μM D-Ala). The “reduction of MIC of vancomycin in dilution steps” value in experiment [2] (all clinical isolates, 50 mM D-Ala) is reported as 4-7 dilution steps. Moreover, the MIC of vancomycin in experiment [2] (worst cases, 50 mM D-Ala) is 128 µg/mL.

Values taken from patent publication US20190000789A1, “COMPOSITION AND METHOD FOR TREATING INFECTIONS CAUSED BY VANCOMYCIN-RESISTANT INFECTIOUS AGENTS IN A SUBJECT” (priority 2015, published 2019).
